Source: patent US10117890B2, “Methods and compositions for treating pain” (Academia Sinica, priority 2012, dated 2018)

System: muscle nociceptors (ASIC3-positive muscle afferent DRG neurons expressing ISP-O)
Assay: Whole-cell patch-clamp recording of outward currents in muscle afferent DRG neurons
Assay type: cell-based, mice
Method: The digested DRG neurons were washed with fetal calf serum (FCS)-free DMEM or DMEM containing 10% FCS during each treatment. Fully digested DRGs were triturated and plated on poly-L-lysine-coated cover slides. Cell cultures were maintained in a 5% CO2 incubator at 37° C.
Whole-cell patch-clamp recordings of muscle-afferent neurons involved use of Axopatch MultiClamp 700B (Axon Instruments). Neurons with membrane potential >−40 mV were discarded. The bridge was balanced in current-clamp recording, and the series resistance was compensated 70% in voltage-clamp recording with […] 700B compensation circuitry. All experiments were performed at room temperature (21-25° C.) and completed within 30 hr post-seeding. Unless specifically mentioned, the patch pipettes were prepared in 1-5 MΩ and filled with internal solution containing (in mM) 100 KCl, 2 Nae-ATP, 0.3 Na3-GTP, 10 EGTA, 5 MgCl2, and 40 HEPES, adjusted to pH 7.4 with KOH. Recording cells were superfused in artificial cerebrospinal fluid (ACSF) by control with gravitational force. The ACSF contained (in mM) 130 NaCl, 5 KCl, 1 MgCl2, 2 CaCl2, 10 glucose, and 20 HEPES, adjusted to pH 7.4 with NaOH. Osmolarity was adjusted to 300 mOsm. The acidic ACSF was titrated to pH 6.8 by […]. […] If not specifically mentioned, drugs listed above were from Sigma Chemical (St. Louis, Mo.).
The procedure was repeated at least 2 times to ensure consistent data. […] ACSF-containing compounds were superfused for 1 min to ensure complete replacement of previous perfusate between treatments. […] A recording pipette containing 1 mM GDP-β-S was used in GTP dialysis. The GABA-B current was induced by 100 μM Baclofen at the beginning of dialysis (0, 1 and 2 min after whole-cell patch clamp). Then, Baclofen was used to re-stimulate the dialyzed neurons after 10-min dialysis (10, 11 and 12 min after whole-cell patch clamp).

EC50 (Mus musculus, DRG neuron, peak whole-cell current, 1, 3, 10, 30 and 100 nM, n=11, read-out: EC50 of T1-11-induced outward current (IT1-11)): 1.3 nM
SMILES: OC[C@H]1O[C@@H](n2cnc3c(NCc4ccc(O)cc4)ncnc32)[C@H](O)[C@@H]1O [T1-11, N^6-(4-hydroxybenzyl)adenosine]
IT1-11 in A2A−/− muscle afferent DRG neurons (A2A−/− neurons): not changed | induction of outward current in ASIC3/SP-expressing muscle DRG neurons (SP-sensitive muscle nociceptors): elicited a slow inactivating outward current | effect on M-type potassium current (voltage shift from −50 mV to −20 mV, muscle afferent neurons expressing ISP-O): enhanced M current
